The record followed here is patent US8431597B2, “Benzimidazole derivatives” (Pfizer Inc., priority 2007, dated 2013).

SMILES strings stand for the structures. Structures can show the parent of a compound that is named as a salt.

The target in the test is T1, Smoothened (SMO) (Mus musculus, UniProt P56726).
T1 construct: C3H10T1/2 cells (ATCC #CCL-226) were split and seeded; endogenous in cells; host or cells: C3H10T1/2 (ATCC #CCL-226)
T1 sequence (P56726 33-793): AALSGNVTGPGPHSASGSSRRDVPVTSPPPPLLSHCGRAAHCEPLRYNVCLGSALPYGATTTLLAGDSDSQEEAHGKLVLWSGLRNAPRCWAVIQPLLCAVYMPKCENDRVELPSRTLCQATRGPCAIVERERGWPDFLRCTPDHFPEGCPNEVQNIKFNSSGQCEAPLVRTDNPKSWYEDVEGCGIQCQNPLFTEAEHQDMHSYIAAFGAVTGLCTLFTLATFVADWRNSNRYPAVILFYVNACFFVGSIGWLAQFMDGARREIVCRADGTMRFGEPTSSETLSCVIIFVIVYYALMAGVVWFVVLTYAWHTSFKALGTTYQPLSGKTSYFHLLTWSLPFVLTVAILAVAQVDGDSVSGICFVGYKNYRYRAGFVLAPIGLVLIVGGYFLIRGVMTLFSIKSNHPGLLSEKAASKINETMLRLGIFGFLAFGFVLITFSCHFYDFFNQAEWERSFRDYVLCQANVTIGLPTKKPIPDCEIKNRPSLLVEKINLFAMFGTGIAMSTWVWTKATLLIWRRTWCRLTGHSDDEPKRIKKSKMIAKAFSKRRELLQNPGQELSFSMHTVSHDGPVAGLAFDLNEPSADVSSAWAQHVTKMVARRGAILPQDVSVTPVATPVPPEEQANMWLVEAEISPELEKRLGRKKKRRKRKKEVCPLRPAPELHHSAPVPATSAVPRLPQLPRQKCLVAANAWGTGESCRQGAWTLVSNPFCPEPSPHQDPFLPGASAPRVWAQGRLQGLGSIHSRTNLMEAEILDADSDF
The experiment in a line: Smoothened (SMO)/Sonic Hedgehog (SHh) Transient Transcriptional Activation Assay (Gli-luciferase reporter in C3H10T1/2 cells). The test is classed as cell-based, murine. The conditions noted are these: C3H 10T1/2, 2 μM compound; transfected C3H10T1/2 cells, recombinant human SHh 250 ng/mL, 20 hours, luciferase readout; read-out: SMO CELL % INHIBITION @ 2 μM. A digest of the protocol:
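C3H10T1/2 cells transiently transfected with a murine Gli-responsive firefly luciferase reporter plus pEGFP were serum-starved 20 h in 0.5% calf serum. Compound (2 μM to 2 nM final) was added with recombinant human SHh at 250 ng/mL final for 20 h at 37 °C. Read-out was Dual-Glo luminescence.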
In general terms: Reporter assays use an easily measured gene product as a stand-in for the process of interest.
One may read the inhibition as the change of the read-out against control, counted positive when it falls. In the case of `COc1ccc2nc([C@@H]3C[C@H](NC(=O)Nc4ccc(Cl)c(C(F)(F)F)c4)CN3)[nH]c2c1` [Example 20, 1-[4-chloro-3-(trifluoromethyl)phenyl]-3-[(3S,5S)-5-(6-methoxy-1H-benzimidazol-2-yl)pyrrolidin-3-yl]urea], the inhibition at 2 µM is 63%.

Turning to `CN1CC[C@@H](NC(=O)c2ccc3nonc3c2)C[C@@H]1c1nc2ccccc2[nH]1` [Example 119, N-[(2R,4R)-2-(1H-benzimidazol-2-yl)-1-methylpiperidin-4-yl]-2,1,3-benzoxadiazole-5-carboxamide trifluoroacetate], the inhibition at 2 µM turned out to be 64.5%.

For `COc1ccc(NC(=O)N[C@@H]2CCN(C)[C@@H](c3nc4cc(C(F)(F)F)ccc4[nH]3)C2)cn1` [Example 135, 1-(6-methoxypyridin-3-yl)-3-{(2R,4R)-1-methyl-2-[5-(trifluoromethyl)-1H-benzimidazol-2-yl]piperidin-4-yl}urea hydrochloride], the inhibition at 2 µM is 104%.

Take `Cc1ccc2nc([C@H]3C[C@H](NC(=O)c4ccc5c(c4)OCCO5)CCN3C)[nH]c2c1` (stereo in doubt) [Example 6, 2,3-Dihydro-benzo[1,4]dioxine-6-carboxylic acid [1-methyl-2-(6-methyl-1H-benzoimidazol-2-yl)-piperidin-4-yl]-amide hydrochloride]: the inhibition at 2 µM turned out to be 105%.

Consider `CC(=O)c1c(C)[nH]c(C(=O)N[C@@H]2CCN(C)[C@@H](c3nc4ccccc4[nH]3)C2)c1C` [Example 50, 4-acetyl-N-[(2R,4R)-2-(1H-benzimidazol-2-yl)-1-methylpiperidin-4-yl]-3,5-dimethyl-1H-pyrrole-2-carboxamide hydrochloride], for which the inhibition at 2 µM is 105%.

Take `CN1CC[C@@H](NC(=O)c2ccc3c(c2)OCCO3)C[C@@H]1c1nc2ccccc2[nH]1` [Example 86, N-[(2R,4R)-2-(1H-benzimidazol-2-yl)-1-methylpiperidin-4-yl]-2,3-dihydro-1,4-benzodioxine-6-carboxamide hydrochloride]: the inhibition at 2 µM was determined as 93.1%.

In the case of `COc1ccc2[nH]c([C@H]3C[C@H](NC(=O)c4ccc5c(c4Cl)OCCO5)CCN3C)nc2c1` [Example 146, 5-chloro-N-[(2R,4R)-2-(5-methoxy-1H-benzimidazol-2-yl)-1-methylpiperidin-4-yl]-2,3-dihydro-1,4-benzodioxine-6-carboxamide triflouroacetate], the inhibition at 2 µM turned out to be 107%.

For the molecule `Cc1ccc(NC(=O)N[C@@H]2CCN(C)[C@@H](c3nc4cc(C)c(C)cc4[nH]3)C2)cn1` [Example 131, 1-[(2R(4R)-2-(5,6-dimethyl-1H-benzimidazol-2-yl)-1-methylpiperidin-4-yl]-3-(6-methylpyridin-3-yl)urea hydrochloride], the inhibition at 2 µM came to 105%.

Consider `CC(C)CN1CC[C@@H](NC(=O)Nc2ccc(C#N)cc2)C[C@@H]1c1nc2ccccc2[nH]1` [Example 39, 1-[(2R,4R)-2-(1H-benzimidazol-2-yl)-1-isobutylpiperidin-4-yl]-3-(4-cyanophenyl)urea], for which the inhibition at 2 µM was 106%.

For `CN1CC[C@@H](NC(=O)c2ccc3c(c2Cl)OCCO3)C[C@@H]1c1nc2cc(Cl)ccc2[nH]1` [Example 145, 5-chloro-N-[(2R,4R)-2-(5-chloro-1H-benzimidazol-2-yl)-1-methylpiperidin-4-yl]-2,3-dihydro-1,4-benzodioxine-6-carboxamide triflouroacetate], the inhibition at 2 µM turned out to be 106%.

For the molecule `CN1CC[C@@H](NC(=O)c2ccc3c(c2)CCC(=O)N3)C[C@@H]1c1nc2ccccc2[nH]1` [Example 87, N-[(2R,4R)-2-(1H-benzimidazol-2-yl)-1-methylpiperidin-4-yl]-2-oxo-1,2,3,4-tetrahydroquinoline-6-carboxamide hydrochloride], the inhibition at 2 µM turned out to be 92.3%.

Turning to `CN1C[C@@H](NC(=O)c2ccc3c(c2)OCCO3)C[C@H]1c1nc2ccccc2[nH]1` [Example 21, N-[(3S,5S)-5-(1H-benzimidazol-2-yl)-1-methylpyrrolidin-3-yl]-2,3-dihydro-1,4-benzodioxine-6-carboxamide], the inhibition at 2 µM was 61.8%.

`CN1CC[C@@H](NC(=O)Nc2ccc(C(F)(F)F)nc2)C[C@@H]1c1nc2cc(C(F)(F)F)ccc2[nH]1` [Example 35, 1-{(2R,4R)-1-methyl-2-[5-(trifluoromethyl)-1H-benzimidazol-2-yl]piperidin-4-yl}-3-[6-(trifluoromethyl)pyridin-3-yl]urea hydrochloride]: the inhibition at 2 µM stood at 107%.

For `COc1ccc2[nH]c([C@H]3C[C@H](NC(=O)Nc4ccc(C)nc4)CCN3C)nc2c1` [Example 129, 1-[(2R,4R)-2-(5-methoxy-1H-benzimidazol-2-yl)-1-methylpiperidin-4-yl]-3-(6-methylpyridin-3-yl)urea hydrochloride], the inhibition at 2 µM was determined as 104%.

With `CC(C)(C)OC(=O)N1C[C@@H](NC(=O)Nc2ccc(Cl)c(C(F)(F)F)c2)C[C@H]1c1nc2ccccc2[nH]1` [Example 8, tert-butyl (2S,4S)-2-(1H-benzimidazol-2-yl)-4-[({[4-chloro-3-(trifluoromethyl)phenyl]amino}carbonyl)amino]pyrrolidine-1-carboxylate], the inhibition at 2 µM stood at 57.1%.

Regarding `COc1ccc(NC(=O)N[C@@H]2CCN(C)[C@@H](c3nc4cc(C#N)ccc4[nH]3)C2)cn1` [Example 134, 1-[(2R,4R)-2-(5-cyano-1H-benzimidazol-2-yl)-1-methylpiperidin-4-yl]-3-(6-methoxypyridin-3-yl)urea hydrochloride], the inhibition at 2 µM was found to be 105%.

For the molecule `CN1CC[C@@H](NC(=O)c2ccc3c(c2)CCO3)C[C@@H]1c1nc2ccccc2[nH]1` [Example 47, N-[(2R,4R)-2-(1H-benzimidazol-2-yl)-1-methylpiperidin-4-yl]-2,3-dihydro-1-benzofuran-5-carboxamide hydrochloride], the inhibition at 2 µM worked out at 105%.

On to `COc1cncc(NC(=O)N[C@@H]2CCN(C)[C@@H](c3nc4ccccc4[nH]3)C2)c1` [Example 96, 1-[(2R,4R)-2-(1H-benzimidazol-2-yl)-1-methylpiperidin-4-yl]-3-(5-methoxypyridin-3-yl)urea hydrochloride], for which the inhibition at 2 µM came out at 76.3%.

`CN1CC[C@@H](NC(=O)Nc2cccc(C#N)c2)C[C@@H]1c1nc2ccccc2[nH]1` [Example 88, 1-[(2R,4R)-2-(1H-benzimidazol-2-yl)-1-methylpiperidin-4-yl]-3-(3-cyanophenyl)urea hydrochloride]: the inhibition at 2 µM was determined as 92.1%.

As to `CN1CC[C@@H](NC(=O)Nc2ccc(C#N)cn2)C[C@@H]1c1nc2ccccc2[nH]1` [Example 43, 1-[(2R,4R)-2-(1H-benzimidazol-2-yl)-1-methylpiperidin-4-yl]-3-(5-cyanopyridin-2-yl)urea hydrochloride], the inhibition at 2 µM worked out at 106%.

Consider `Cc1ccc2nc([C@@H]3C[C@@H](NC(=O)Nc4ccc(Cl)c(C(F)(F)F)c4)CN3C)[nH]c2c1` [Example 17, 1-[4-chloro-3-(trifluoromethyl)phenyl]-3-[(3R,5S)-1-methyl-5-(6-methyl-1H-benzimidazol-2-yl)pyrrolidin-3-yl]urea], for which the inhibition at 2 µM worked out at 63.2%.

In the case of `Cc1ccc(NC(=O)N[C@@H]2CCN(C)[C@@H](c3nc4ccccc4[nH]3)C2)c(C)n1` [Example 48, 1-[(2R,4R)-2-(1H-benzimidazol-2-yl)-1-methylpiperidin-4-yl]-3-(2,6-dimethylpyridin-3-yl)urea hydrochloride], the inhibition at 2 µM was 105%.

With `CN1CC[C@@H](NC(=O)NC2CCCC2)C[C@@H]1c1nc2ccccc2[nH]1` [Example 85, 1-[(2R,4R)-2-(1H-benzimidazol-2-yl)-1-methylpiperidin-4-yl]-3-cyclopentylurea hydrochloride], the inhibition at 2 µM stood at 93.1%.

Consider `COc1ccc(NC(=O)N[C@@H]2CCN(C)[C@@H](c3nc4ccc(Cl)cc4[nH]3)C2)cn1` [Example 133, 1-[(2R,4R)-2-(6-chloro-1H-benzimidazol-2-yl)-1-methylpiperidin-4-yl]-3-(6-methoxypyridin-3-yl)urea hydrochloride], for which the inhibition at 2 µM was 108%.

For `CN1CC[C@@H](NC(=O)Cc2ccccc2F)C[C@@H]1c1nc2ccccc2[nH]1` [Example 120, N-[(2R,4R)-2-(1H-benzimidazol-2-yl)-1-methylpiperidin-4-yl]-2-(2-fluorophenyl)acetamide trifluoroacetate], the inhibition at 2 µM stood at 63.7%.

Turning to `Cc1ccc(NC(=O)N[C@@H]2CCN(C)[C@@H](c3nc4ccccc4[nH]3)C2)cn1` [Example 81, 1-[(2R,4R)-2-(1H-benzimidazol-2-yl)-1-methylpiperidin-4-yl]-3-(6-methylpyridin-3-yl)urea hydrochloride], the inhibition at 2 µM is 97.8%.

Take `O=C(Nc1ccc(Cl)c(C(F)(F)F)c1)N[C@@H]1CN[C@H](c2nc3ccc(F)cc3[nH]2)C1` [Example 13, 1-[4-chloro-3-(trifluoromethyl)phenyl]-3-[(3S,5S)-5-(6-fluoro-1H-benzimidazol-2-yl)pyrrolidin-3-yl]urea]: the inhibition at 2 µM was 84.2%.

In the case of `COc1cc(C(=O)N[C@@H]2CCN(C)[C@@H](c3nc4ccccc4[nH]3)C2)ccc1F` [Example 102, N-[(2R,4R)-2-(1H-benzimidazol-2-yl)-1-methylpiperidin-4-yl]-4-fluoro-3-methoxybenzamide trifluoroacetate], the inhibition at 2 µM was determined as 102%.

Turning to `COc1ccc(NC(=O)N[C@@H]2CCN(C)[C@@H](c3nc4ccccc4[nH]3)C2)cn1` [Example 83, 1-[(2R,4R)-2-(1H-benzimidazol-2-yl)-1-methylpiperidin-4-yl]-3-(6-methoxypyridin-3-yl)urea hydrochloride], the inhibition at 2 µM came out at 96.1%.
